Test results reported in ChEMBL document CHEMBL1138806, “A cyclopent-2-enecarbonyl group mimics proline at the P2 position of prolyl oligopeptidase inhibitors” (J Med Chem, 2004).

Key:
[1] = Partition coefficient (logP) determined in a 1-octanol-phosphate buffer system; format: physicochemical
Prolyl endopeptidase [2] = target: T1, Prolyl endopeptidase (Sus scrofa, UniProt P23687); test: Inhibitory activity against prolyl oligopeptidase of porcine brain homogenate
Prolyl endopeptidase [3] = target: T1, Prolyl endopeptidase; test: Inhibitory activity against purified porcine prolyl oligopeptidase

T1 sequence (P23687 whole entry): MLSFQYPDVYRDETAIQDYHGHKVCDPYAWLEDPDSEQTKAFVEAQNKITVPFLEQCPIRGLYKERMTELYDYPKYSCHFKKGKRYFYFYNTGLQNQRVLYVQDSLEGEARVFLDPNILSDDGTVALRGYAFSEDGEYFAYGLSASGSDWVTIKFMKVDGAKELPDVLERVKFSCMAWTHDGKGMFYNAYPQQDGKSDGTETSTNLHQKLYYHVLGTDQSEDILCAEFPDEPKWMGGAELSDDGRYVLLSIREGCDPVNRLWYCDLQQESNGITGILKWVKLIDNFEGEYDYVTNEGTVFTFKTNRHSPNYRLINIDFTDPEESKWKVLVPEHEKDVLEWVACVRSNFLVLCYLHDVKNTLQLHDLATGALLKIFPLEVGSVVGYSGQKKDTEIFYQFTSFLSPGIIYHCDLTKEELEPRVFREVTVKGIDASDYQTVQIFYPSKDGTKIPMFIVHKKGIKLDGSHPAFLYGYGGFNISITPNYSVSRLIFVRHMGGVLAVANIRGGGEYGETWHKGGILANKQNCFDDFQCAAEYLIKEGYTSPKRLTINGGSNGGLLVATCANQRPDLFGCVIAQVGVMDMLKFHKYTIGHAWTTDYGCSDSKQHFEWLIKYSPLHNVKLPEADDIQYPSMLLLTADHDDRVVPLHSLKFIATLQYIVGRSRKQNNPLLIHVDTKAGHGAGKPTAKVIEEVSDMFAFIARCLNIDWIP

Structure (SMILES) | logP [1] | IC50 (Prolyl endopeptidase [2]) | Ki (Prolyl endopeptidase [3])
N#C[C@@H]1CCCN1C(=O)[C@@H]1CCCN1C(=O)CCCc1ccccc1 | 1.6 |  | 
O=C(NCc1ccccc1)C1=CCC[C@H]1C(=O)N1CCC[C@H]1C(=O)CO | 0.6 | 300 pM | 150 pM
O=C([C@@H]1CCCN1C(=O)CCCc1ccccc1)N1CCCC1 | 1.8 |  | 
N#C[C@@H]1CCCN1C(=O)[C@@H]1CCC=C1C(=O)CCCc1ccccc1 | 2.4 | 200 pM | 30 pM
O=C(CO)[C@@H]1CCCN1C(=O)[C@@H]1CCCN1C(=O)NCc1ccccc1 | 0.2 | 200 pM | 60 pM

Continued by falling IC50 (Prolyl endopeptidase [2]), values first:

logP [1] | IC50 (Prolyl endopeptidase [2]) | Ki (Prolyl endopeptidase [3]) | Structure (SMILES)
 | 230000 pM |  | O=C(NCc1ccccc1)C1=C(C(=O)N2CCCC2)CCC1
 | 52000 pM |  | O=C(NCc1ccccc1)C1=CCC[C@@H]1C(=O)N1CCC[C@H]1C(=O)CO
 | 5000 pM |  | N#C[C@@H]1CCCN1C(=O)[C@H]1CCC=C1C(=O)CCCc1ccccc1
